Data on 6 molecules can be found in US20150168416A1, “KITS FOR DETECTING AND MONITORING ENDOCRINE DISRUPTING CHEMICALS (EDCs)” (THE UNITED STATES OF AMERICA, as represented by the …, priority 2012, published 2015).

Structures are written as SMILES. “Also recorded” adds a separate entry of the source.

Holding throughout (assay type): cell-based
For one test, the target named is T1, GFP-GR (Rattus norvegicus, UniProt P06536, C656G/D98G).
T1 construct: expressed in transfected cells; host or cells: 3617 cells (derivative of the 3134 mouse mammary adenocarcinoma line), tetracycline-repressible promoter
Nature of the test: GFP-GR cytoplasm-to-nucleus translocation assay (3617 cells). Particulars: hormones 100 nM or known concentrations, water samples 100× unless specified, 30 min. As for the experimental part: (§1) Prior to imaging, cells were grown overnight on 22-mm^2 coverslips in DMEM medium containing 10% charcoal stripped serum (Hyclone, Logan, Utah) without tetracycline (to allow the expression of the GFP-GR or GFP-AR, respectively) at a density of 2×10^5 per 6-well plate. For the automated experiments conducted in 96 or 384 well plates, cell density was 10, 000 or 2,500 cells per well, respectively. Cells were treated with vehicle control, hormones (100 nM) or water samples for 30 min at 37° C. at a final concentration of 100×for water samples (unless otherwise specified). Additional negative controls contained samples that tested the activity of the POCIS membranes themselves.
(§2) Upon treatment, cells were fixed with 4% paraformaldehyde in PBS for 15 minutes and washed three times with PBS. Cells on the 22-mm^2 coverslips were mounted in […]® mounting media with DAPI (Vector Laboratories, Inc.) and examined on a Leica DMRA microscope with Leica 100× 1.3-N.A. oil immersion objective. Images were acquired in green (GFP-GR and GFP-AR) and UV (DAPI) channel with SenSys (Photometrics) camera with KAF1400 chip configured to collect 0.067-μm-diameter pixels. For the automated experiments conducted in 96 or 384 well plates, cells were stained with DRAQ5 (BioStatus Limited) at a dilution of 1:5000 for 15 minutes and after three final washes with PBS were imaged either immediately on the Perkin Elmer Opera Image Screening System or kept in PBS at 4° C. for later imaging.
(§3) A Perkin Elmer Opera Image Screening System was used for fully automated collection of fluorescence images of cells. This system employed a 40×water immersion objective lens, laser illuminated Nipkow disk, and cooled CCD cameras to digitally capture high resolution confocal fluorescence micrographs (300 nm pixel size with 2×2 camera pixel binning). […] The algorithm also measured the mean GFP-GR or GFP-AR intensity in both compartments, and translocation was calculated as a ratio of these intensities. […]

The target of another test is T2, GFP-AR (Homo sapiens, UniProt P10275).
T2 construct: expressed in transfected cells; host or cells: 3108 cells (derivative of the 3134 mouse mammary adenocarcinoma line), tetracycline-repressible promoter
Nature of the test: GFP-AR cytoplasm-to-nucleus translocation assay (3108 cells). The following applies: hormones 100 nM or known concentrations, water samples 100× unless specified, 30 min. As to the method:
as §1, §2, §3

For another test, the target named is T3, eGFP-ratMR (Rattus norvegicus, UniProt P22199, A771G/D487G).
T3 construct: expressed in transfected cells
Nature of the test: eGFP-ratMR translocation in mammalian cells. The text has this: (§4) Using molecular cloning methods essentially similar to those employed in Example 1, the following additional traceable fusion proteins have been constructed: an aryl hydrocarbon (e.g., dioxin) sensitive fusion protein, pRevTRE-GFP-mAhR (SEQ ID NOs: 9/10); a mineralocorticoid (e.g., aldosterone) sensitive fusion protein, eGFP-ratMR (SEQ ID NOs: 11/12); and a progestin-sensitive fusion protein, eGFP-hPRB (SEQ ID NOs: 13/14).

A further test deals with T4, pRevTRE-GFP-mAhR (Mus musculus, UniProt P30561).
T4 construct: expressed in transfected cells
Nature of the test: pRevTRE-GFP-mAhR translocation in mammalian cells.
From the text: as §4

For the next test, the target named is T5, GFP-PR-B (eGFP-hPRB) (Homo sapiens, UniProt P06401).
T5 construct: Five mammalian clonal lines expressing the same traceable fusion protein, GFP-PR-B (eGFP-hPRB); expressed in transfected cells
Nature of the test: GFP-PR-B translocation in clonal cell lines. Particulars: clones 8122, 8124, 8127, 8130 (four of five tested). The text has this:
Five mammalian clonal lines expressing the same traceable fusion protein, GFP-PR-B (eGFP-hPRB; SEQ ID NO: 14) were contacted with the indicated levels of progesterone, then assayed essentially as in Example 1 for translocation of the fusion protein into the nucleus from the cytoplasm.

Turning to `C[C@@]12CCC[C@H]1[C@@H]1CC(=O)C3=CC(=O)CC[C@]3(C)[C@H]1CC2` [Androst-4-en-3,6-dione], the GFP-GR nuclear translocation result on GFP-GR is listed as “did not induce GFP-GR translocation”. For the same molecule, the values for the GFP-AR nuclear translocation entry at GFP-AR, at GFP-AR (listed as androst-4-en-3,6-dione) and on GFP-AR (listed as androst-4-ene-3,6-dione) were “induced GFP-tagged androgen receptor (GFP-AR) translocation”, “translocated to the nucleus in concentration-dependent manner; also recorded: induces concentration-dependent translocation” and “GFP-AR nuclear translocation”, respectively. Consider `C[C@]12CCC(=O)C=C1CC[C@@H]1[C@@H]2[C@@H](O)C[C@]2(C=O)[C@@H](C(=O)CO)CC[C@@H]12` [aldosterone], for which, on eGFP-ratMR, the eGFP-ratMR translocation entry is on record as “exhibited the expected translocation”.

For `CCNc1nc(Cl)nc(NC(C)C)n1` [atrazine], on GFP-GR, the GFP-GR nuclear translocation entry is “did not induce GFP-GR translocation”. Consider `C[C@]12C[C@H](O)[C@H]3[C@@H](CCC4=CC(=O)CC[C@@]43C)[C@@H]1CC[C@@H]2C(=O)CO` [corticosterone], for which, on GFP-GR, the GFP-GR nuclear translocation result is “translocates to the nucleus in a concentration-dependent manner; also recorded: GFP-GR translocation”. In the case of `C1=COC=CO1` [dioxin], the pRevTRE-GFP-mAhR translocation result on pRevTRE-GFP-mAhR is “exhibited the expected translocation”.

On to `CC(=O)[C@H]1CC[C@H]2[C@@H]3CCC4=CC(=O)CC[C@]4(C)[C@H]3CC[C@]12C` [progesterone], for which the GFP-PR-B translocation result at GFP-PR-B (eGFP-hPRB) was “exhibited the expected translocation; also recorded: positive for translocation”.
